In PMC12898745, “VOCs Profiling and Quality Assessment of Milk Employing Odorant-Binding Proteins-Based Fluorescence Biosensor” (International Journal of Molecular Sciences, 2026):
Where two headings read alike, the source gives them in different places.

T1: pOBP (Sus scrofa, UniProt P81245)
T1 sequence (P81245 1-157): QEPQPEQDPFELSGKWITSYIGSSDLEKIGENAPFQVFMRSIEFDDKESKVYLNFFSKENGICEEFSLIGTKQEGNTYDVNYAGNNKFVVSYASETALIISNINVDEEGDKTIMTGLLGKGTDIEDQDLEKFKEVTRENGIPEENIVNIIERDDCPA

T2: bOBP (Bos taurus, UniProt P07435)
T2 sequence (P07435 1-159): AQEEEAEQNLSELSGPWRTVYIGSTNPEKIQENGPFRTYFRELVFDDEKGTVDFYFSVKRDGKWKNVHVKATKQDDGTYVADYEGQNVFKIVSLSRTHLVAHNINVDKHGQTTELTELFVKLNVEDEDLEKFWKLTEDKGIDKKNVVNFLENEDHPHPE

T3: bOBP (Bos taurus, UniProt P07435, H155C/INS121G/W64C)
T3 construct: His tag; made in house
T3 sequence (P07435 with tags, fused parts or gaps W64C/INS121G/H155C): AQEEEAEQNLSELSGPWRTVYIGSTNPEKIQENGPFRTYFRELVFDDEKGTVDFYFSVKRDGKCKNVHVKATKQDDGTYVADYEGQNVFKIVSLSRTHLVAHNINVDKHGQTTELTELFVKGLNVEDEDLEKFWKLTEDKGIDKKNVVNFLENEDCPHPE

B1: pOBP: porcine odorant-binding protein, a typical monomeric lipocalin used as molecular recognition element (protein, UniProt P81245 1-157, looked up)
Odorant-binding protein: T1 sequence (P81245 1-157)

Columns and labels:
[1] = target: T1, pOBP; test: Fluorescence titration with 1-AMA and competitive FRET assay on pOBP; assay type: binding, porcine
Description: (§1) The ability of pOBP and bOBP to bind 1-AMA was assessed through fluorescence titration experiments. […] However, upon binding 1-AMA to OBPs, two major spectral changes were observed: • A blue-shift in the emission maximum to 481 nm, along with a significant increase in fluorescence intensity. • A decrease in the tryptophan fluorescence emission at 340 nm.
(§2) A competitive FRET assay was performed to study the interaction between the OBP and the selected VOCs. In the assay, a solution of OBPs in the presence of 1-AMA was titrated with increasing concentrations of VOCs. The fluorescence emissions at 481 nm (1-AMA bound state) and 340 nm (tryptophan emission) were recorded. A progressive decrease of 1-AMA fluorescence emission and a partial recovery of the protein tryptophan emission were observed. This trend indicates the displacement of 1-AMA from the protein binding site by individual selected VOCs. The variations in the FRET signals, due to competitive binding, were used to quantify the VOC bound to the protein.
Steady-state fluorescence measurements were conducted using an ISS K2 Frequency-Domain Fluorometer (ISS Inc., Champaign, IL, USA) with a 1.0 cm path length quartz cuvette. Fluorescence spectra of bOBP and pOBP samples were recorded, ensuring optical densities below 0.1 OD at 295 nm to prevent inner filter effects. Tryptophan (Trp) residues were excited at 295 nm, and fluorescence emission spectra were collected from 320 nm to 600 nm at 1 nm intervals, with a scan speed of 100 nm/min and excitation and emission slit widths set at 1.0 nm. The lamp power was maintained at 17.5 A. Assays were performed in 500 μL of phosphate saline buffer (PBS) at pH 7.4. The OBPs-VOCs interactions were studied by a fluorescence titration approach. For this purpose, the protein (12 µM, saturated with 1-AMA) was titrated with increasing concentrations of the tested VOC. The measurements were carried out in triplicate, and the obtained experimental data were processed by OriginPro 2021b software.
For the fluorometric competitive assay, the ability of OBPs to bind VOCs and 1-AMA was utilized to develop a FRET-based assay. The competition between VOCs and 1-AMA for binding to the OBP’s active site was studied by monitoring the fluorescence emission decrease consequent to the VOCs displacement of 1-AMA from the OBP’s active site. […] The measurements were carried out in triplicate, and the data were analyzed using the OriginPro 2021b software.

[2] = target: T2, bOBP; test: Fluorescence titration with 1-AMA and competitive FRET assay on bOBP; assay type: binding, bovine; details: read-out: bOBP Kd ± SD; non-linear fitting; PBS pH 7.4; VOCs by displacement of 1-AMA
Description: as §1
as §2, with “This trend indicates the displacement of 1-AMA from the protein binding site by individual selected VOCs.” left out
Steady-state fluorescence measurements were conducted using an ISS K2 Frequency-Domain Fluorometer (ISS Inc., Champaign, IL, USA) with a 1.0 cm path length quartz cuvette. Fluorescence spectra of bOBP and pOBP samples were recorded, ensuring optical densities below 0.1 OD at 295 nm to prevent inner filter effects. […] The OBPs-VOCs interactions were studied by a fluorescence titration approach. […]

[3] = target: T1, pOBP; test: Thermal denaturation of pOBP by tryptophan fluorescence; assay type: physicochemical, porcine; details: for effect of VOC on thermal stability (Tm) of pOBP: saturating concentrations: 1-pentanol 50 mM, 1-octen-3-ol 5 mM, 2-butanone 10 mM
Description: (§3) Thermal stability studies were conducted to evaluate the temperature-induced denaturation of the pOBP and bOBP. The experiments aimed to determine the unfolding dynamics of these proteins and assess the influence of VOCs on protein stability. The thermal stabilities of pOBP and bOBP were monitored by fluorescence spectroscopy. The temperature-dependent fluorescence emission spectra were recorded in the range 320–410 nm, with excitation at 295 nm to selectively excite tryptophan residues.
(§4) Boltzmann fitting was applied to describe the thermal denaturation behavior and determine the melting temperature (Tm) values, defined as the midpoint of the transition between the folded and unfolded states. The calculated Tm values were 62 ± 0.4 °C for pOBP (Figure 6b) and 54 ± 0.5 °C for bOBP (Figure 7b).
(§5) To analyze the protein’s thermal stability, studies on temperature-induced denaturation were conducted on the chosen OBPs in the absence and presence of the selected VOCs. The emission spectra were recorded at an excitation wavelength of 295 nm to focus only on the contribution of tryptophan residues with a 12 μM pOBP sample, with an optical density around 0.1 OD at 295 nm.
Fluorescence intensity variation was recorded in the temperature range from 25 to 95 °C and the emission spectra acquired in the wavelength range 320–410 nm. Measurements were performed in triplicate after 10 min of incubation at defined temperatures. […] To analyze the thermal denaturation data, OriginPro 2021b software was used.

[4] = target: T3, bOBP; test: Thermal denaturation of bOBP by tryptophan fluorescence; assay type: physicochemical, bovine; details: saturating VOC concentrations
Description: as §3, §4, §5
Fluorescence intensity variation was recorded in the temperature range from 25 to 95 °C and the emission spectra acquired in the wavelength range 320–410 nm. […]

[5] = target: bovine serum albumin (BSA) (Bos taurus, UniProt P02769); test: HS-SPME/GC-MS binding assay with BSA (negative control protein); details: BSA in place of pOBP; 10 µM volatile, overnight, room temperature
Chain of bovine serum albumin (BSA) (P02769 25-607): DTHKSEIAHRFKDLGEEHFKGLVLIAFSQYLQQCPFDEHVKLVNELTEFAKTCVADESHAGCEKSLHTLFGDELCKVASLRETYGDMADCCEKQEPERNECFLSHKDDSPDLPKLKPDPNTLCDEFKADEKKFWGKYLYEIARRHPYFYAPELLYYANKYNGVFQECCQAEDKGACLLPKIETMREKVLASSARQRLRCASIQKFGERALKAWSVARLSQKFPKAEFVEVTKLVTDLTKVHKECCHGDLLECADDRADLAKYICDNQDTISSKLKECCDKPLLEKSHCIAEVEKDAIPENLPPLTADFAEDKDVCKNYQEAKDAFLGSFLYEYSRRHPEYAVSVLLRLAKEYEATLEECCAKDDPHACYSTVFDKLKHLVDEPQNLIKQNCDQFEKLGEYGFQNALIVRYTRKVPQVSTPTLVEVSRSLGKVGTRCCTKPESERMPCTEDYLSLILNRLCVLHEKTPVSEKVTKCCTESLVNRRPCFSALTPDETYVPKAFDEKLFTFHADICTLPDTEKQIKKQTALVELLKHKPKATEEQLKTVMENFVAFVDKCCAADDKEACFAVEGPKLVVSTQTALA
Description: Afterwards, the fiber (DVB-Carboxen-PDMS, 2 cm length SUPELCO, Bellefonte, PA, USA) was automatically inserted in the vial for 60 min and then desorbed for 10 min at 250 °C in the injector port of a GC, model 7890A, Agilent (Agilent Technologies, Santa Clara, CA, USA) coupled to a mass spectrometer, model 5975 C (Agilent), where VOCs were thermally released and directly transported to a capillary column HP-Innowax (30 m × 0.25 mm × 0.5 µm Agilent J&W) for analysis. The oven temperature was set as follows: 40 °C for 1 min, ramped to 160 °C at 6 °C min^−1, then, after 1 min, increased 10 °C min^−1 to 210 °C, and finally ramped to 230 °C at 15 °C min^−1, and kept there for 5 min. The temperatures of the ion source and the quadrupole were 230 °C and 150 °C, respectively, and helium at a flow rate of 1.0 mL min^−1 was the carrier gas. The analyses were carried out using the pulsed spitless mode, and mass spectra were recorded at an ionization energy of 70 eV, with mass selective detector operating in the mass range between 30 and 300 u. […]
Linear retention indices (LRIs) were calculated using the same chromatographic conditions by injecting C8–C40 n-alkane series (Supelco, Bellefonte, PA, USA). VOCs were identified by comparing the mass spectra reported in the NIST-2014 and Wiley 7.0 libraries by matching the calculated LRI with the literature data and by valuating their retention times, with respect to those of pure standards, if available. The VOCs concentrations were expressed as the equivalent of the IS (percent ratio of the respective peak area relative to the IS area, RPA%), and areas were taken from the total ion chromatogram (TIC) according to the following equation: (Peak Area of each VOC/Peak Area IS) × 100. […]

[6] = target: T1, pOBP; test: HS-SPME/GC-MS binding assay with pOBP; design: species or system porcine; details: pOBP 30 µM; 10 µM volatile, overnight, room temperature
Description: To assess the ability of pOBP to bind VOCs, HS-SPME/GC-MS analyses were carried out on binding assays in the absence and in the presence of the two OBPs. Binding assay experiments were conducted in parallel on samples in the absence (only buffer as negative control) and in the presence of bovine serum albumin (BSA) (used as negative control of protein) or pOBP.
The HS-SPME/GC-MS technique was used to evaluate the VOCs profiles of samples of raw cow milk and, successively, the ability of purified OBPs to bind to selected VOCs in the gas phase. According to Sacchi et al., 5 mL of milk were introduced in a HS-SPME 20 mL glass vial, with 5 µL of a standard solution of 2-methyl-3-pentanone used as internal standard (IS, 5 mM). Samples were equilibrated for 30 min at 55 °C to release VOCs. […] The analyses were carried out using the pulsed spitless mode, and mass spectra were recorded at an ionization energy of 70 eV, with mass selective detector operating in the mass range between 30 and 300 u. […]
Linear retention indices (LRIs) were calculated using the same chromatographic conditions by injecting C8–C40 n-alkane series (Supelco, Bellefonte, PA, USA). VOCs were identified by comparing the mass spectra reported in the NIST-2014 and Wiley 7.0 libraries by matching the calculated LRI with the literature data and by valuating their retention times, with respect to those of pure standards, if available. The VOCs concentrations were expressed as the equivalent of the IS (percent ratio of the respective peak area relative to the IS area, RPA%), and areas were taken from the total ion chromatogram (TIC) according to the following equation: (Peak Area of each VOC/Peak Area IS) × 100.
Using the same experimental parameters reported above, HS-SPME/GC-MS analysis was also performed on pOBP samples with and without exposition to the HS of the selected VOCs. […] The peak areas measured for PBS-only and pOBP-comprising samples were compared for each experiment. […]

[7] = target: T1, pOBP; test: Fluorescence quenching (Stern-Volmer) of pOBP; design: species or system porcine; details: acrylamide quencher, no VOC
Description: To study the protein conformational changes and accessibility to the tryptophan residues, fluorescence quenching experiments were conducted. According to Lakowicz, acrylamide is the most suitable quencher for tryptophan fluorescence. The quenching effect of acrylamide on the intrinsic fluorescence of the protein was analyzed. The study aimed to characterize the accessibility of tryptophan residues, to differentiate between static and dynamic quenching mechanisms, and to assess the effects of the VOCs binding on protein stability. Fluorescence quenching can occur through two primary mechanisms: dynamic (collisional) and static quenching. Dynamic quenching occurs when acrylamide molecules collide with the fluorophore in its excited state, facilitating a non-radiative energy transfer or electron exchange. […]
To evaluate the solvent accessibility of the OBP’s tryptophan residues, a fluorescence quenching assay was performed using acrylamide. […] Fluorescence emission spectra were acquired using an excitation wavelength of 295 nm and emission range from 310 to 410 nm.
Quenching data were evaluated using the Stern–Volmer equation by plotting F0/F against [Q], where F0 represents the fluorescence intensity without quencher, F is the fluorescence intensity in the presence of quencher, and [Q] denotes the quencher concentration [Equation (2)]:(2) F0/F=1+KSV [Q]

[8] = target: T1, pOBP; design: method as in earlier work; details: HS-DSC, neutral pH; ref 21 (Staiano et al. 2007); cited from earlier work
[9] = competitive titration with VOC, Figure 4 insets, read-out: k (Hill fit), decrease of 1-AMA emission at 481 nm, pOBP
[10] = non-linear fitting, PBS pH 7.4, VOCs by displacement of 1-AMA, read-out: pOBP Kd ± SD

| Molecule | Kd [1] | Kd [2] | Kd [1, 9] | Kd [1, 10] | effect of VOC on thermal stability (Tm) of pOBP [3] | effect of VOC on thermal stability (Tm) of bOBP [4] | %RPA, BSA [5] | %RPA, pOBP [6] | Tm of pOBP in the presence of VOC ([3]; saturating VOC concentration (1-octen-3-ol 5 mM)) | melting temperature (Tm) of pOBP ([3]; no VOC, Boltzmann fitting, emission 340 nm, 25-95 °C) | Stern-Volmer constant K_SV, pOBP [7] | unfolding transition temperature of pOBP [8] |
| --- | --- | --- | --- | --- | --- | --- | --- | --- | --- | --- | --- | --- |
| Nc1cccc2cc3ccccc3cc12 [1-AMA, 1-aminoanthracene, reference compound] | 2.03 ± 0.13 µM | 2.68 ± 0.46 µM |  |  |  |  |  |  |  |  |  |  |
| CCCCCO [1-pentanol] |  |  | 1860 µM | 1800 ± 1200 µM | significantly stabilized | highest stability | 242.5 ± 5.1 %RPA | 425.0 ± 8.3 %RPA |  |  |  |  |
| CCC(C)=O [2-butanone] |  |  |  | 934 ± 56 µM | significantly stabilized |  | 276.2 ± 2.7 %RPA | 926.7 ± 10.3 %RPA |  |  |  |  |
| C=CC(O)CCCCC (stereo not drawn) [1-octen-3-ol] |  |  | 479 µM | 479 ± 53 µM | significantly stabilized |  | 226.7 ± 8.9 %RPA | 708.1 ± 2.7 %RPA | 64 ± 1.45 °C |  |  |  |
| B1 |  |  |  |  |  |  |  |  |  | 62 ± 0.4 °C | 3 ± 1 M^−1 | approximately 69 °C |
